The source of these data is ChEMBL document CHEMBL1201862, “PubChem BioAssay data set” (2004).

Experiment in all cases: NCI anticancer screen, dose series, 48 h
The test system of test [1] is MDA-MB-435.
Test [2] deals with NCI-H460.
For test [3], the system named is RXF 393.
In test [4] the test system is RPMI-8226.
For test [5], the system named is SN12C.
Test [6] concerns HCC 2998.
The subject of test [7] is EKVX.
The test system of test [8] is CAKI-1.
Test [9] has as its system SR.
The test system of test [10] is BT-549.
Test [11] deals with COLO 205.
Test [12] deals with KM12.
Test [13] concerns M14.
Test [14] concerns OVCAR-5.
The subject of test [15] is MDA-MB-231.
In test [16] the test system is DU-145.
Test [17] deals with NCI-H522.
The test system of test [18] is MDA-N.
Test [19] concerns U-251.
Test [20] concerns HCT-15.

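Five concentrations, 48 hours, 96-well plates. GI50 marks 50% less growth.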 Activity calls are given as the source filed them. Rule as the data show it: active = GI50 up to about 1.1 µM and inactive = higher.

Consider `O=C1c2ccccc2-n2c1nc1ccccc1c2=O` [TRYPTANTHRIN], for which the GI50 is 1.85 µM (inactive) in test [1]; 1.44 µM (inactive) in [2]; 28.1 µM (inactive) in test [3]; 1.04 µM (active) in test [4]; 12.6 µM (inactive) in [5]; 29.4 µM (inactive) in [6]. Moreover, the GI50 in [7] is 13.4 µM (inactive); in [8] it was 12.3 µM (inactive); in test [9], 8.47 µM (inactive); in [10], 14.6 µM (inactive); in [11], 12.8 µM (inactive); in test [12], 6.62 µM (inactive). The GI50 is 5.65 µM (inactive) in [13]; 16 µM (inactive) in test [14]; 16.7 µM (inactive) in [15]; 10.7 µM (inactive) in [16]; 15.3 µM (inactive) in test [17]; 18.2 µM (inactive) in test [18]. Also, the GI50 is 3.34 µM (inactive) in test [19] and 3.6 µM in test [20].
Turning to `Clc1ccc(Cc2nc3ccccc3o2)cc1`, the GI50 in test [1] is > 100 µM (inactive); in test [2] it was > 100 µM (inactive); in test [3], 25.3 µM (inactive); in test [4], 27.6 µM (inactive); in [5], > 100 µM (inactive); in [6], 54 µM (inactive). The GI50 in test [7] was 40.1 µM (inactive); in test [8], 54.8 µM (inactive); in test [9] it was 50.5 µM (inactive); in [10], 35.8 µM (inactive); in test [11], 74.6 µM (inactive); in test [12], 69.8 µM (inactive). Further, the GI50 in test [13] is > 100 µM (inactive); in [14] it was > 100 µM (inactive); in test [15] it was > 100 µM (inactive); in test [16] it was > 100 µM (inactive); in test [17], 33.8 µM (inactive); in test [18], > 100 µM (inactive). The GI50 was 72.1 µM (inactive) in [19] and 39.3 µM in test [20].
Turning to `O=c1ssc(Cl)c1Cl`, the GI50 was > 10 µM (inactive) in test [1]; > 10 µM (inactive) in test [2]; > 10 µM (inactive) in [3]; 5.19 µM (inactive) in test [4]; > 10 µM (inactive) in test [5]; > 10 µM (inactive) in test [6]. For the same compound, the GI50 in test [7] was > 10 µM (inactive); in test [8], 5.38 µM (inactive); in test [9], > 10 µM (inactive); in [10], > 10 µM (inactive); in [11] it was 2.11 µM (inactive); in test [12], > 10 µM (inactive). Further, the GI50 is > 10 µM (inactive) in [13]; > 10 µM (inactive) in test [14]; > 10 µM (inactive) in [15]; > 10 µM (inactive) in test [16]; 4.05 µM (inactive) in test [17]; > 10 µM (inactive) in [18]. The GI50 is > 10 µM (inactive) in [19] and over 10 µM in test [20].
For `N#CC1(C#N)C(C#N)(C#N)C1(C#N)C(N)=O`, the GI50 in [1], in test [2], in test [3], in test [4], in test [5] and in test [6] was > 100 µM (inactive) throughout. Also, the GI50 in test [7], in test [8], in test [9], in test [10], in [11] and in test [12] was > 100 µM (inactive) each time. For the same compound, the GI50 in test [13], in [14], in test [15], in test [16], in test [17] and in test [18] was > 100 µM (inactive) in each case. Further, the GI50 in test [19] was > 100 µM (inactive); in test [20], over 100 µM.
For `O=C1c2cccc3cc4ccccc4c(c23)C(=O)N1CCCNCCNCCCN1C(=O)c2cccc3cc4ccccc4c(c23)C1=O`, the GI50 is 0.0421 µM (active) in test [1]; < 0.01 µM (active) in test [2]; 0.179 µM (active) in test [3]; < 0.01 µM (active) in test [4]; < 0.01 µM (active) in test [5]; 0.0964 µM (active) in test [6]. For the same compound, the GI50 was 1.15 µM (inactive) in [7]; 0.141 µM (active) in test [8]; < 0.01 µM (active) in [9]; 1.24 µM (inactive) in [10]; 0.0316 µM (active) in [11]; 0.106 µM (active) in [12]. Besides, the GI50 in [13] was 0.177 µM (active); in [14] it was 0.257 µM (active); in test [15], 0.189 µM (active); in test [16] it was 0.475 µM (active); in [17], < 0.01 µM (active); in [18], 0.0546 µM (active). Besides, the results for the GI50 in [19] and in test [20] were 0.0264 µM (active) and 0.103 µM, respectively.
As to `Fc1cc2nc3n(c2cc1F)C(c1c(Cl)cccc1Cl)SC3` (stereo not drawn), the GI50 is 15.1 µM (inactive) in [1]; 13.7 µM (inactive) in test [2]; 14.9 µM (inactive) in [3]; 11.9 µM (inactive) in test [4]; 16.3 µM (inactive) in test [5]; 15.8 µM (inactive) in [6]. For the same compound, the GI50 in test [7] is 18.4 µM (inactive); in test [8], 14.1 µM (inactive); in test [9] it was 4.51 µM (inactive); in test [10] it was 21.8 µM (inactive); in [11] it was 18.7 µM (inactive); in test [12] it was 13.4 µM (inactive). The GI50 in [13] was 15.7 µM (inactive); in test [14] it was 14.3 µM (inactive); in test [15], 18.8 µM (inactive); in test [16], 17.5 µM (inactive); in test [17], 16.9 µM (inactive); in test [18], 15.7 µM (inactive). Also, the figures for the GI50 in [19] and in test [20] were 17.1 µM (inactive) and 17.5 µM, respectively.
As to `Nc1ncnc2c1ncn2[C@H]1CC[C@@H](NO)C1`, the GI50 in test [1], in test [2], in [3], in [4], in [5] and in test [6] was > 100 µM (inactive) throughout. Moreover, the GI50 in test [7], in [8], in test [9], in test [10], in test [11] and in test [12] was > 100 µM (inactive) in each case. The GI50 in test [13], in [14], in [15], in test [16], in test [17] and in test [18] was > 100 µM (inactive) in each case. The GI50 in test [19] was > 100 µM (inactive); in test [20], over 100 µM.
`O=C1c2ccccc2-c2c1c1ccccc1c(=O)n2-c1cccnc1`: the GI50 in [1] was > 100 µM (inactive); in test [2], 6.24 µM (inactive); in [3], > 100 µM (inactive); in test [4], > 39.5 µM (inactive); in test [5], > 52.2 µM (inactive); in test [6], > 100 µM (inactive). Besides, the GI50 in [7] was > 44.2 µM (inactive); in test [8] it was 35.3 µM (inactive); in test [9], 5.53 µM (inactive); in test [10] it was 34.8 µM (inactive); in test [11], > 68.1 µM (inactive); in [12], > 100 µM (inactive). Moreover, the GI50 is > 100 µM (inactive) in test [13]; > 100 µM (inactive) in [14]; > 59.7 µM (inactive) in test [15]; > 100 µM (inactive) in test [16]; 10.5 µM (inactive) in test [17]; > 100 µM (inactive) in [18]. For the same compound, the figures for the GI50 in test [19] and in test [20] were 22.7 µM (inactive) and 24.9 µM, respectively.
`C=CCN(c1cc(OCc2ccccc2)c2c(c1)c(C)cn2S(=O)(=O)c1ccccc1)S(C)(=O)=O`: the GI50 in test [1], in test [2], in test [3], in test [4], in test [5] and in [6] was > 100 µM (inactive) throughout. In addition, the GI50 in test [7], in [8], in test [9], in test [10], in test [11] and in [12] was > 100 µM (inactive) throughout. The GI50 in test [13], in [14], in [15], in [16], in test [17] and in [18] was > 100 µM (inactive) throughout. Besides, the GI50 was > 100 µM (inactive) in test [19] and over 100 µM in [20].
Regarding `Cc1nc2c(sc3nc4ccccc4n32)c(=O)[nH]1`, the GI50 in test [1], in test [3], in test [4], in test [6], in test [7] and in [8] was > 100 µM (inactive) throughout. Further, the GI50 in test [9], in test [10], in [11], in [12], in test [13] and in test [14] was > 100 µM (inactive) throughout. The GI50 was > 100 µM (inactive) in test [15]; > 100 µM (inactive) in test [16]; > 100 µM (inactive) in test [17]; > 100 µM (inactive) in test [18]; > 100 µM (inactive) in test [19]; over 100 µM in test [20].
